Experimental data taken from patent US5599807A, “Steroid derivatives” (Senju Pharmaceutical Co., Ltd., priority 1993, dated 1997).
Counter-ions that a name gives are not always drawn.

Test system: rat carrageenin-induced pleuritis
Assay: Inhibitory effect on rat carrageenin-induced pleuritis (dye leakage into pleural cavity)
Format: in vivo, Wistar rats
Details: NFLX-DX 13.4 mg/kg orally 30 min before induction, n = 7
Protocol: Inhibitory Effect of the Compound on Rat Carrageenin-induced Pleuritis The inhibitory effect of norfloxacin-dexamethasone ester hydrochloride on rat carrageenin-induced pleuritis was evaluated. [Test substance] Norfloxacin-dexamethasone ester hydrochloride (abbreviatedname: NFLX-DX) Wistar rats weighing about 200 g were used. Two groups receiving (1) distilled water (5 ml/kg) and (2) NFLX-DX (13.4 mg/kg), respectively, were provided. Under pentobarbital anesthesia, 0.1 ml of 2% λ-carrageenin was injected into the rat pleura to induce pleuritis. Five hours after the construction of pleuritis, a 5% aqueous solution of Pontamine Sky Blue (2 mg/kg) was injected intravenously, and 20 minutes later the rat was sacrificed and the pleural exudate was collected using a tube. The amount of dye leakage in the pleural cavity (μg/site) was estimated from the amount and absorbance (625 nm) of the exudate sample (ml) by the calibration curve method. The test substance was administered orally (5 ml/kg) 30 minutes before induction of inflammation.

With `CCn1cc(C(=O)OCC(=O)[C@@]2(O)[C@H](C)C[C@H]3[C@@H]4CCC5=CC(=O)C=C[C@]5(C)[C@@]4(F)[C@@H](O)C[C@@]32C)c(=O)c2cc(F)c(N3CCNCC3)cc21` [NFLX-DX, 9-Fluoro-11β,17,21-trihydroxy-16α-methyl-1,4-pregnadiene-3, 20-dione-21-[1-ethyl-6-fluoro-1,4-dihydro-7-(1-piperazinyl)-4-oxo-3-quinolinecarboxylate]hydrochloride] as the compound, how does the Dye leakage (mean ± standard error, * p < 0.01 vs control (distilled water, 74.81 ± 10.70)) read?
The Dye leakage was 20.02 ± 3.80 μg/site.

What about the “% Inhibition” value (inhibition of dye leakage vs control (distilled water)) of the same compound?
The value was 73.0%.
